Measured values taken from ChEMBL document CHEMBL1201862, “PubChem BioAssay data set” (2004).
The source made the active and inactive calls.

Columns and labels:
HEK293 = test: HEK cell cytotoxicity by LDH release, dose response, cytotoxicity control for IDE activator project, fluorescence, HEK cells (AID 588440); type: functional, cell-based; details: Homo sapiens;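 also: cytotoxicity by LDH release measuring loss of membrane integrity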
[1] = molecular target: T1, Dual specificity protein phosphatase 6 (Rattus norvegicus, UniProt Q64346); test: MKP-3 phosphatase inhibitors, primary screen, biochemical, rat enzyme, in vitro (AID 425)
T1 sequence (Q64346 whole entry): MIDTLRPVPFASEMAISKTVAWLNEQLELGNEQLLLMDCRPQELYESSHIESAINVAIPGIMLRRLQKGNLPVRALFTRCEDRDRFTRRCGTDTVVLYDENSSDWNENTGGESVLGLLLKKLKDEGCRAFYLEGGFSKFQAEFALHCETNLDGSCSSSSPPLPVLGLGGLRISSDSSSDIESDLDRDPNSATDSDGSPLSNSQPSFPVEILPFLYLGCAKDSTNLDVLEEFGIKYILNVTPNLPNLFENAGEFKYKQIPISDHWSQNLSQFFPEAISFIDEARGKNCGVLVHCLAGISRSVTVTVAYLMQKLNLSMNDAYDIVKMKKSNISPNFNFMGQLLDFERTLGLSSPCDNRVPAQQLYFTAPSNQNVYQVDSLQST

Prothrombin = Prothrombin (Bos taurus, UniProt P00735); test: thrombin inhibition, dose response, biochemical, fluorescence polarization, uHTS hits (AID 602369); type: functional
[2] = molecular target: T2, Apoptotic protease-activating factor 1 (Homo sapiens, UniProt O14727); type: functional
T2 sequence (O14727 whole entry): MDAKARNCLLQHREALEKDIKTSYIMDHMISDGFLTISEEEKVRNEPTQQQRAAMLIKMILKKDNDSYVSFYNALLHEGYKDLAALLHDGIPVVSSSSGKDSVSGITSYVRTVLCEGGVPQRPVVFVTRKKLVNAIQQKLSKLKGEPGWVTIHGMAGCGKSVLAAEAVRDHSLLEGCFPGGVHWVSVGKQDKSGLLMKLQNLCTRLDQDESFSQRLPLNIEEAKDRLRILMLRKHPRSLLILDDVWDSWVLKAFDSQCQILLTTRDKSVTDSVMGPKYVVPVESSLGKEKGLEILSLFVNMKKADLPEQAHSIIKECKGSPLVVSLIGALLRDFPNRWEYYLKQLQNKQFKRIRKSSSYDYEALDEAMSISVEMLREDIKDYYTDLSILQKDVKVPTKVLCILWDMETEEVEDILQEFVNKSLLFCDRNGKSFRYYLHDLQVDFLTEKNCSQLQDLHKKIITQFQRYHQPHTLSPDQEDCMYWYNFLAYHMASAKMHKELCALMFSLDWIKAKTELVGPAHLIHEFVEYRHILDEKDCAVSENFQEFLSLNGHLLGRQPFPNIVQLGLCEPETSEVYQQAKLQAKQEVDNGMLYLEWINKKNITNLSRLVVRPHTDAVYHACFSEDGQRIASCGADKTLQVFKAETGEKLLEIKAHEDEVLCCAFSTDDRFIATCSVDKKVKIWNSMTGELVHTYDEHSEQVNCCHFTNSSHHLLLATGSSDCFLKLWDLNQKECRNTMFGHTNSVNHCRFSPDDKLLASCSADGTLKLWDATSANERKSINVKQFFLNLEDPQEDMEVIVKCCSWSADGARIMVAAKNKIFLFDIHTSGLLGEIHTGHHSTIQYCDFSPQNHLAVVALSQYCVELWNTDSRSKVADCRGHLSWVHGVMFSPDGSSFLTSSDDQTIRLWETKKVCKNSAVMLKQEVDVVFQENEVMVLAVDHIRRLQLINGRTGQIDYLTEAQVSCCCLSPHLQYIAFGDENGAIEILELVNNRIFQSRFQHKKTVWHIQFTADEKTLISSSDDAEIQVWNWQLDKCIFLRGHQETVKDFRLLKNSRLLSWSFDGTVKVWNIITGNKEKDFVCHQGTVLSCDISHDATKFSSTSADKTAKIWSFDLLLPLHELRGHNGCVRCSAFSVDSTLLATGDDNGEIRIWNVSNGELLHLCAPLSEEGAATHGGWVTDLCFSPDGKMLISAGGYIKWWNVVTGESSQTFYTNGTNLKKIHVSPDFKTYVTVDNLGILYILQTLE

Caspase-6 = molecular target: T3, Caspase-6 (Homo sapiens, UniProt P55212); test: human caspase-6 inhibitors, dose response, biochemical, VEID-R110 fluorescence, cherry-pick (AID 720632)
T3 sequence (P55212 whole entry): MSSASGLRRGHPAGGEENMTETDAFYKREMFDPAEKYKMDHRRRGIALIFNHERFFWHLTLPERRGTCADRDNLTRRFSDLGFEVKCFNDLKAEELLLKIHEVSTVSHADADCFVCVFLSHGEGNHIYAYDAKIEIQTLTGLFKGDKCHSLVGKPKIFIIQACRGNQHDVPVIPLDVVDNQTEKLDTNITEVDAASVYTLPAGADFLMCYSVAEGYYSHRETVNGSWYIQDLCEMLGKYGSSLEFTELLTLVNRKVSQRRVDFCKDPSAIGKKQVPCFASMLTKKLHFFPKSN

Protein RecA = molecular target: T4, Protein RecA (Mycobacterium tuberculosis, UniProt P9WHJ3); test: Fluorescence Cell-Free Homogeneous Dose Retest to Identify Inhibitors of RecA-Intein Splicing Activity. [Related pubchem assays (depositor defined):AID2097, AID2223, AID489010, AID492950]; type: functional
T4 sequence (P9WHJ3 whole entry): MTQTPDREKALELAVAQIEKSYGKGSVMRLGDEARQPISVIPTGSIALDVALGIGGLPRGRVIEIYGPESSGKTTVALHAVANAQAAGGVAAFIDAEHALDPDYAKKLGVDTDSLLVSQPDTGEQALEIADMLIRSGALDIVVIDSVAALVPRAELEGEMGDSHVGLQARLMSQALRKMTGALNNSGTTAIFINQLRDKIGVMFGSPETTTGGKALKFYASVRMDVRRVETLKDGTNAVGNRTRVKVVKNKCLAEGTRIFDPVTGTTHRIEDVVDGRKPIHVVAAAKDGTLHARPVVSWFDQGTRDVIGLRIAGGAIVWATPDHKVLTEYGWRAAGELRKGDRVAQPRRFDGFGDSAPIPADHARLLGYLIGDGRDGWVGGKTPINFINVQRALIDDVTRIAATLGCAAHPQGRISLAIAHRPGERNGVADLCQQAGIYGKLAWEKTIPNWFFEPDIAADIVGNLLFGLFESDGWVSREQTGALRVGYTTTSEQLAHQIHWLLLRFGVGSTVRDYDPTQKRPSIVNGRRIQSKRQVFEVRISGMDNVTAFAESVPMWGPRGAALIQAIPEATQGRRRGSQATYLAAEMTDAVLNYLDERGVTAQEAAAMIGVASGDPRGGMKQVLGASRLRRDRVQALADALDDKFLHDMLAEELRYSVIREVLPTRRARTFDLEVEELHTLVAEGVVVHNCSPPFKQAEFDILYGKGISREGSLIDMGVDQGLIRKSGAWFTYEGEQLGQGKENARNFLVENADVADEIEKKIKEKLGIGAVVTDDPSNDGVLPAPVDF

[3] = ARNT/TACC3 interaction disruptors, potency, confirmation, biochemical, AlphaScreen, cherry-picked samples (AID 651703); type: functional, Homo sapiens;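 also: His-tagged ARNT PAS-B domain paired with GST-TACC3 E629A dimer coactivator fragment; potency of inhibitors that break up the complex and lower AlphaScreen signal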

## O=c1oc2c(O)cccc2cc1-c1nc2ccccc2[nH]1
HEK293
  IC50: > 89.3 µM (inactive)

## CCOC(=O)c1sc2nc3c(SCC(=O)O)cc(C(=O)c4ccccc4O)cn3c(=O)c2c1C
[1]
  IC50: 103 µM (not active)
Prothrombin
  IC50: 56.6 µM (active)

## C=CCn1c(NC(=O)c2ccccc2Cl)c(C#N)c2nc3ccccc3nc21
[1]
  IC50: > 100 µM (not active)
[2]
  IC50: 13.7 µM (active)
Caspase-6
  AC50: 10.4 µM (active)

## CCOC(=O)c1ccc(Nc2cc3ccccc3c(O)n2)cc1
Protein RecA
  EC50: 9.12 µM (active)
[2]
  IC50: 8.78 µM (active)
Caspase-6
  AC50: 15.7 µM (active)
[3]
  AC50: 84.2 µM (active)
